How the values were obtained:
[1] = Partition coefficient (log P butanol/buffer); type: physicochemical
[2] = target: T1, OATP1B1 (Homo sapiens, UniProt Q9Y6L6); assay: Uptake into stable transfected OATP1B1 HEK 293 cells; type: cell-based; details: for Inhibition Rifampicine: uptake into OATP1B1-HEK 293 cells
T1 sequence (Q9Y6L6 1-691): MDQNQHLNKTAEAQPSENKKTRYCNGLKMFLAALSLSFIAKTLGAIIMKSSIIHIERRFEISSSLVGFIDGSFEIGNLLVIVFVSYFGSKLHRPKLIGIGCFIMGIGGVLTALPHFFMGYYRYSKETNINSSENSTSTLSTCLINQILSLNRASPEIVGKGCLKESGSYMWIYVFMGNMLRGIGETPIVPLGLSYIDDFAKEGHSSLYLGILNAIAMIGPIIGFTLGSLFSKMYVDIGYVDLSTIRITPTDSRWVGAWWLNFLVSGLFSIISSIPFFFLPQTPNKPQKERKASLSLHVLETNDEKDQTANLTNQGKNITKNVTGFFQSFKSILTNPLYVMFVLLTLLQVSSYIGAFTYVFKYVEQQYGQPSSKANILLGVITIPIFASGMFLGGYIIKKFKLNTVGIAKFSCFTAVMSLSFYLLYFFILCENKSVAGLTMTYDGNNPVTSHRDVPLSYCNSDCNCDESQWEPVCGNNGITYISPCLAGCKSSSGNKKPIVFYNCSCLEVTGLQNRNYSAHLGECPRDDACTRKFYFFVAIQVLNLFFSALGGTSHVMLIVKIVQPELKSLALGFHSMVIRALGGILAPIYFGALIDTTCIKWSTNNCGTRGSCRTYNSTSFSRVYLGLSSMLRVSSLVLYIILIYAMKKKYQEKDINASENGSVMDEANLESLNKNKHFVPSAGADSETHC
Experimental: (§1) Cryopreserved cells were shortly thawed in water bath and diluted in 10 mL warm culture medium (37° C.). After medium change the cells were grown for 3d in a 25 cm^2 cell culture flask. After 3 to 5d the cells were transferred into 75 cm^2 flasks. […] All test items were prepared in transport buffer at a final concentration of 100 M from stock solutions (180 to 500 mM concentration). The OATP1B1 HEK 293 cells were incubated with test solutions (test item in transport buffer 500 L) for 40 min on a thermoshaker without shaking (PHMP, Fa. Grant Bio). Triplicates were performed for each test item. After incubation the cells were washed with 2 mL of cold PBS (+) buffer (Dulbeccos PBS+, Fa. Gibco). […] As a reference standard Gd-EOB-DTPA (gadoxetate) is used in the same well plate.

[3] = target: T2, OATP1B3 (Homo sapiens, UniProt Q9NPD5); assay: Uptake into stable transfected OATP1B3 HEK 293 cells; type: cell-based; details: for Inhibition Rifampicine: uptake into OATP1B3-HEK 293 cells
T2 sequence (Q9NPD5 1-702): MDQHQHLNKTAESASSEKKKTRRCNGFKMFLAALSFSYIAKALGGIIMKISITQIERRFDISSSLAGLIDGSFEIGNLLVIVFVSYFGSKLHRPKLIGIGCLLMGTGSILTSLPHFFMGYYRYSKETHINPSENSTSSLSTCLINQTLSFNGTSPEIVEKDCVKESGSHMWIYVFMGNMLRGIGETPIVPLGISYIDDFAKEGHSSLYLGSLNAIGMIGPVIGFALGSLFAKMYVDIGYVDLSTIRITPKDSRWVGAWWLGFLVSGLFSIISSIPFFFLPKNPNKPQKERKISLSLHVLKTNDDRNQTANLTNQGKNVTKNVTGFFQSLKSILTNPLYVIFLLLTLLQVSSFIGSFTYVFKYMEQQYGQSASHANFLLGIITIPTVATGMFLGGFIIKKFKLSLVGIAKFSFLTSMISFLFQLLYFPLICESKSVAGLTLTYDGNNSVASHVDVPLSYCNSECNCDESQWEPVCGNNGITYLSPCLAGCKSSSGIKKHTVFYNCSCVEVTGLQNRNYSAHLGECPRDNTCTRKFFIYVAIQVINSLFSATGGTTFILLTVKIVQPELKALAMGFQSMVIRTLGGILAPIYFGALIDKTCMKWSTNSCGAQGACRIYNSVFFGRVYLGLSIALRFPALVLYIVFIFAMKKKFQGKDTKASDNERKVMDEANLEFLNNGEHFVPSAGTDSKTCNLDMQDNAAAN
Experimental: as §1, with “100 µM” for “100 M”, “The OATP1B3” for “The OATP1B1”, “500 μL)” for “500 L)”

[4] = tested on: freshly isolated rat hepatocytes; assay: Uptake into freshly isolated rat hepatocytes; details: for Uptake rat hepatocytes: 100 μmol Gd/L, 10 min, 37° C., relative to RC1 (Gd-EOB-DTPA); for Inhibition Rifampicine: rat hepatocyte uptake, test item and Rifampicine 1:1, each 100 μM
[5] = Relaxivity measurements at 1.41 T in water; type: physicochemical; details: 37° C., normalized to Gd
Experimental: (§2) Relaxivity measurements at 1.41 T were performed using a MiniSpec mq60 spectrometer (Bruker Analytik, Karlsruhe, Germany) operating at a resonance frequency of 60 MHz and a temperature of 37° C. The T1 relaxation times were determined using the standard inversion recovery (IR) method with a fixed relaxation delay of at least 5×T1. The variable inversion time (TI) was calculated automatically by the standard software of the MiniSpec mq60 (8 steps). The T2 measurements were performed by using a Carr-Purcell-Meiboom-Gill (CPMG) pulse sequence, applying a relaxation delay of at least 5×T1.
Each relaxivity measurement was performed using three different Gd concentrations (3 concentrations between 0.05 and 2 mM). […] Human plasma preparation: For each experiment fresh blood was taken from a volunteer using 10 mL citrate-tubes (Sarstedt S-Monovette 02.1067.001, 10 mL, Citrate). The 10 mL citrate-tubes were carefully inverted 10 times to mix blood and anticoagulant and centrifuged for 15 min at 1811 g at RT (Eppendorf, Centrifuge 5810R).
(§3) The relaxivities n (where i=1, 2) were calculated based on the measured relaxation rates Ri in water and plasma: […]

[6] = Water solubility in aqueous buffer
Experimental: The solid compounds were added stepwise to the buffer solution. More substance is added once all the suspended material is dissolved until an equilibrium between undissolved and dissolved substance is reached. The suspension was mixed using a shaker (Heidolph Reax 2000) and treated 5 min in an ultrasound bath (Bandelin, Sonorex Super RK255H).

[7] = Relaxivity measurements at 1.41 T in human plasma; type: physicochemical; details: 37° C., normalized to Gd
Experimental: as §2, with “The” for “Relaxivity measurements at 1.41 T were performed using a MiniSpec mq60 spectrometer (Bruker Analytik, Karlsruhe, Germany) operating at a resonance frequency of 60 MHz and a temperature of 37° C. The”
Each relaxivity measurement was performed using three different Gd concentrations (3 concentrations between 0.05 and 2 mM).
as §3

[8] = 1-butanol / 50 mM Tris-HCl, pH 7.4, room temperature
[9] = aqueous buffer 10 mM Tris-HCl, pH 7.4, 20° C.
[10] = 40 min incubation, relative to RC1 (Gd-EOB-DTPA)

Structure (SMILES) | Log P (partition coefficient butanol/buffer) [1, 8] | Inhibition Rifampicine [2] [% inhibition] | Inhibition Rifampicine [3] [% inhibition] | Uptake rat hepatocytes [4] | Inhibition Rifampicine [4] [% inhibition] | r1 water [5] [L/mmol/s] | Solubility [6, 9] [mM] | r1 human plasma [7] [L/mmol/s] | Uptake into OATP1B1-HEK 293 cells [2, 10] | Uptake into OATP1B3-HEK 293 cells [3, 10] | Log P (partition coefficient butanol/buffer) ([1]; pH 7.4) | Solubility ([6]; pH 7.4) [mM]
CCOCCOCCOc1ccc(CCC[C@@H](C(=O)O)N2CCN(C(CO)C(=O)[O-])CCN(C(CO)C(=O)[O-])CCN(C(CO)C(=O)[O-])CC2)cc1.[Gd+3] (mixture of isomers) [Example 21, gadolinium-2,2′,2″-{10-[(1S)-1-carboxy-4-{4-[2-(2-ethoxyethoxy)ethoxy]phenyl}butyl]-1,4,7,10-tetraazacyclododecane-1,4,7-triyl}tris(3-hydroxypropanoate)] | −1.03 | 75 | 94 | 81 % of RC1 | 91 | 5.4 | >368 | 8.5 | – | – | – | –
O=C([O-])CN1CCN(C(Cc2ccc(OCC(F)(F)C(F)F)cc2)C(=O)O)CCN(CC(=O)[O-])CCN([C@@H](CO)C(=O)[O-])CC1.[Gd+3] (mixture of isomers) [Example 33, gadolinium (2S)-2-[4,10-bis(carboxylatomethyl)-7-{1-carboxy-2-[4-(2,2,3,3-tetrafluoropropoxy)phenyl]ethyl}-1,4,7,10-tetraazacyclododecan-1-yl]-3-hydroxypropanoate] | −0.55 | 88 | 98 | 82 % of RC1 | 94 | 4.2 | >29 | 11.7 | 367 % of RC1 | 71 % of RC1 | – | –
CCOCCOCCOc1ccc(CCC[C@@H](C(=O)O)N2CCN(C(CCO)C(=O)[O-])CCN(C(CCO)C(=O)[O-])CCN(C(CCO)C(=O)[O-])CC2)cc1.[Gd+3] (mixture of isomers) [Example 36, gadolinium-2,2′-{4-[(1S)-1-carboxy-4-{4-[2-(2-ethoxyethoxy)ethoxy]phenyl}butyl]-10-[1-carboxylato-3-hydroxypropyl]-1,4,7,10-tetraazacyclododecane-1,7-diyl}bis(4-hydroxybutanoate)] | – | – | – | – | – | 6.1 | – | 8.5 | – | – | −1.08 | 85
CCOCCOCCOc1ccc(CC(C(=O)O)N2CCN(CC(=O)[O-])CCN(C(C)C(=O)[O-])CCN(CC(=O)[O-])CC2)cc1.[Gd+3] (single isomer, unassigned) [Example 5, gadolinium 2-[7-(1-carboxy-2-{4-[2-(2-ethoxyethoxy)ethoxy]phenyl}ethyl)-4,10-bis(carboxylatomethyl)-1,4,7,10-tetraazacyclododecan-1-yl]propanoate] | −1.52 | – | – | 28 % of RC1 | 92 | 4.7 | >59 | 6.9 | – | – | – | –
CCOCCOCCOc1ccc(CCC[C@@H](C(=O)O)N2CCN([C@@H](CO)C(=O)[O-])CCN([C@H](CO)C(=O)[O-])CCN([C@@H](CO)C(=O)[O-])CC2)cc1.[Gd+3] [Example 35, gadolinium (2S,2'S)-2,2′-{4-[(1S)-1-carboxy-4-{4-[2-(2-ethoxyethoxy)ethoxy]phenyl}butyl]-10-[(1R)-1-carboxylato-2-hydroxyethyl]-1,4,7,10-tetraazacyclododecane-1,7-diyl}bis(3-hydroxypropanoate)] | −1.02 | 87 | 98 | – | – | 5.6 | >164 | 8.6 | – | – | – | –
CCOCCOCCOc1ccc(CC(C(=O)O)N2CCN(C(CCO)C(=O)[O-])CCN(C(CCO)C(=O)[O-])CCN(C(CCO)C(=O)[O-])CC2)cc1.[Gd+3] (stereo not shown) [Example 37, gadolinium-2,2′-{4-[1-carboxy-2-{4-[2-(2-ethoxyethoxy)ethoxy]phenyl}ethyl]-10-[1-carboxylato-3-hydroxypropyl]-1,4,7,10-tetraazacyclododecane-1,7-diyl}bis(4-hydroxybutanoate)] | −1.16 | – | – | 26 % of RC1 | 37 | 6.4 | 18 | 8.4 | – | – | – | –

From patent US20260083864A1, “CONTRAST AGENTS FOR USE IN DIAGNOSTIC COMPUTED TOMOGRAPHY IMAGING” (Bayer Aktiengesellschaft, priority 2022, published 2026)
